Measurements from article PMC6145935, “Asymmetric assembly of high-value α-functionalized organic acids using a biocatalytic chiral-group-resetting process” (Nature Communications, 2018).

Biological target: T1, CgTD (Corynebacterium glutamicum, UniProt Q04513)
T1 construct: gene ilvA; recombinant, expressed in E. coli BL21(DE3) from pETDuet-1 (pETduet-CgTD)
T1 sequence (Q04513 1-436): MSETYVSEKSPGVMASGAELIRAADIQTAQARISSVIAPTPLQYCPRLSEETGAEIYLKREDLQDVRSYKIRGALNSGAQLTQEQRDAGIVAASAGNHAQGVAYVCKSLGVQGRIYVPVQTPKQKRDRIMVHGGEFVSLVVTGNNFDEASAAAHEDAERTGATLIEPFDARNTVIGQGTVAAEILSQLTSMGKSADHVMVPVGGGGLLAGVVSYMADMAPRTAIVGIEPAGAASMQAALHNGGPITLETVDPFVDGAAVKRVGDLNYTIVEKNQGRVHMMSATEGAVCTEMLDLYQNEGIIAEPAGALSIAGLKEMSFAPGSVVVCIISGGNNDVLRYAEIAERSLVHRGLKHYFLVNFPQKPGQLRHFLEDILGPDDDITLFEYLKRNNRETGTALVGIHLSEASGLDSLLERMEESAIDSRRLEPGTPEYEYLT
Assay: TD activity screen of enzyme expressed in E. coli
Settings: PLP enzyme; deamination to alpha-keto acid 4a

SMILES	TD activity screen of enzyme expressed in E. coli
N[C@H](C(=O)O)C(O)c1ccccc1 (stereo partly drawn) [threo-3a, threo-ʟ-phenylserine]	the TD activities toward both threo- and erythro-ʟ-phenylserine (threo/erythro-3a) were tested
N[C@H](C(=O)O)[C@@H](O)c1ccccc1 [erythro-3a, erythro-ʟ-phenylserine]	only TD from Corynebacterium glutamicum (CgTD) showed activities toward both configurations
